Reference: ChEMBL document CHEMBL1138648, “Synthesis of new N-(2-(trifluoromethyl)pyridin-4-yl)anthranilic acid derivatives and their evaluation as anticancer agents” (2004)

Tests used:
Assay type in all cases: functional
M14 = test: Growth inhibitory activity against Melanoma M14 cell line was determined; conditions: Homo sapiens
K562 = test: Growth inhibitory activity against Leukemia K-562 cell line was determined; conditions: Homo sapiens
MOLT-4 = test: Growth inhibitory activity against Leukemia MOLT-4 cell line was determined; conditions: Homo sapiens
UACC-62 = test: Growth inhibitory activity against Melanoma UACC-62 cell line was determined; conditions: Homo sapiens
SF-268 [1] = test: Growth inhibitory activity against CNS cancer SF-268 cell line was determined; conditions: Homo sapiens
SF-295 = test: Growth inhibitory activity against CNS cancer SF-295 cell line was determined; conditions: Homo sapiens
SF-539 = test: Growth inhibitory activity against CNS cancer SF-539 cell line was determined; conditions: Homo sapiens
CCRF-CEM = test: Growth inhibitory activity against Leukemia CCRF-CEM cell line was determined; conditions: Homo sapiens
SK-MEL-5 = test: Growth inhibitory activity against Melanoma SK-MEL-5 cell line was determined; conditions: Homo sapiens
A498 = test: Growth inhibitory activity against Renal cancer A498 cell line was determined; conditions: Homo sapiens
ACHN = test: Growth inhibitory activity against Renal cancer ACHN cell line was determined; conditions: Homo sapiens
MDA-MB-435 = test: Growth inhibitory activity against Breast cancer MDA-MB-435 cell line was determined; conditions: Homo sapiens
NCI/ADR-RES = test: Growth inhibitory activity against Breast cancer NCI/ADR-RES cell line was determined; conditions: Homo sapiens
MDA-MB-231 = test: Growth inhibitory activity against Breast cancer MDA-MB-231/ATCC cell line was determined; conditions: Homo sapiens
EKVX = test: Growth inhibitory activity against non small cell lung cancer EKVX cell line was determined; conditions: Homo sapiens
NCI-H460 [2] = test: Growth inhibitory activity against non small cell lung cancer H460 cell line was determined; conditions: Homo sapiens
NCI-H522 = test: Growth inhibitory activity against non small cell lung cancer H522 cell line was determined; conditions: Homo sapiens
NCI-H23 = test: Growth inhibitory activity against non small cell lung cancer NCI-H23 cell line was determined; conditions: Homo sapiens
NCI-H226 = test: Growth inhibitory activity against non small cell lung cancer NCI-H226 cell line was determined; conditions: Homo sapiens
A549 = test: Growth inhibitory activity against non small cell lung cancer A549/ATCC cells; conditions: Homo sapiens
NCI-H322M = test: Growth inhibitory activity against non small cell lung cancer NCI-H322M cell line was determined; conditions: Homo sapiens
HOP-92 = test: Growth inhibitory activity against non small cell lung cancer HOP-92 cell line was determined; conditions: Homo sapiens
UACC-257 = test: Growth inhibitory activity against Melanoma UACC-257 cell line was determined; conditions: Homo sapiens
NCI-H460 [3] = test: In vitro percent of proliferation of vehicle treated NCI-H460 human lung cell lines was determined at 0.0010 M concentration
KM12 = test: Growth inhibitory activity against colon cancer KM12 cell line was determined; conditions: Homo sapiens
MCF7 [4] = test: Growth inhibitory activity against Breast cancer MCF-7 cell line was determined; conditions: Homo sapiens
HL-60 = test: Growth inhibitory activity against Leukemia HL-60(TB) cell line was determined; conditions: Homo sapiens
RPMI-8226 = test: Growth inhibitory activity against Leukemia RPMI-8226 cell line was determined; conditions: Homo sapiens
SR = test: Growth inhibitory activity against Leukemia SR cell line was determined; conditions: Homo sapiens
786-0 = test: Growth inhibitory activity against Renal cancer 786-0 cell line was determined; conditions: Homo sapiens
SN12C = test: Growth inhibitory activity against Renal cancer SN12C cell line was determined; conditions: Homo sapiens
TK-10 = test: Growth inhibitory activity against Renal cancer TK-10 cell line was determined; conditions: Homo sapiens
CAKI-1 = test: Growth inhibitory activity against Renal cancer CAKI-1 cell line was determined; conditions: Homo sapiens
HCT-15 = test: Growth inhibitory activity against colon cancer HCT-15 cell line was determined; conditions: Homo sapiens
SW-620 = test: Growth inhibitory activity against colon cancer SW-620 cell line was determined; conditions: Homo sapiens
BT-549 = test: Growth inhibitory activity against Breast cancer BT-549 cell line was determined; conditions: Homo sapiens
PC-3 = test: Growth inhibitory activity against Prostate cancer PC-3 cell line was determined; conditions: Homo sapiens
Hs-578T = test: Growth inhibitory activity against Breast cancer HS 578T cell line was determined; conditions: Homo sapiens
HCC 2998 = test: Growth inhibitory activity against colon cancer HCC2998 cell line was determined; conditions: Homo sapiens
OVCAR-3 = test: Growth inhibitory activity against Ovarian cancer OVCAR-3 cell line was determined; conditions: Homo sapiens
OVCAR-5 = test: Growth inhibitory activity against Ovarian cancer OVCAR-5 cell line was determined; conditions: Homo sapiens
OVCAR-8 = test: Growth inhibitory activity against Ovarian cancer OVCAR-8 cell line was determined; conditions: Homo sapiens
DU-145 = test: Growth inhibitory activity against Prostate cancer DU-145 cell line was determined; conditions: Homo sapiens
SF-268 [5] = test: In vitro percent of proliferation of vehicle treated SF-268 human CNS cell lines was determined at 0.0010 M concentration
MCF7 [6] = test: In vitro percent of proliferation of vehicle treated MCF-7 human breast cell lines was determined at 0.0010 M concentration

O=C(Oc1ccc(Cl)cc1Cl)c1ccccc1Nc1ccnc(C(F)(F)F)c1
GI50 (M14): 1.9 µM | GI50 (K562): 3 µM | GI50 (MOLT-4): 100 µM | GI50 (UACC-62): 2.3 µM | GI50 (SF-268 [1]): 3.1 µM | GI50 (SF-295): 15 µM | GI50 (SF-539): 3.8 µM | GI50 (CCRF-CEM): 3.5 µM | GI50 (SK-MEL-5): 2.8 µM | GI50 (A498): 21 µM | GI50 (ACHN): 13 µM | GI50 (MDA-MB-435): 2.9 µM | GI50 (NCI/ADR-RES): 3.6 µM | GI50 (MDA-MB-231): 2.2 µM | GI50 (EKVX): 19 µM | GI50 (NCI-H460 [2]): 4.3 µM | GI50 (NCI-H522): 4.6 µM | GI50 (NCI-H23): 3.5 µM | GI50 (NCI-H226): 3.4 µM | GI50 (A549): 11 µM | GI50 (NCI-H322M): 14 µM | GI50 (HOP-92): 12 µM | GI50 (UACC-257): 11 µM | Proliferation (NCI-H460 [3]): 1% | GI50 (KM12): 3.7 µM | GI50 (MCF7 [4]): 3.6 µM | GI50 (HL-60): 6.6 µM | GI50 (RPMI-8226): 2.4 µM | GI50 (SR): 0.77 µM | GI50 (786-0): 1.9 µM | GI50 (SN12C): 3 µM | GI50 (TK-10): 4.1 µM | GI50 (CAKI-1): 2.1 µM | GI50 (HCT-15): 2.2 µM | GI50 (SW-620): 4.6 µM | GI50 (BT-549): 6.8 µM | GI50 (PC-3): 8.3 µM | GI50 (Hs-578T): 25 µM | GI50 (HCC 2998): 3.2 µM | GI50 (OVCAR-3): 11 µM | GI50 (OVCAR-5): 7.9 µM | GI50 (OVCAR-8): 4.8 µM | GI50 (DU-145): 16 µM | Proliferation (SF-268 [5]): 9% | Proliferation (MCF7 [6]): 3%

CSc1ccc(OC(=O)c2ccccc2Nc2ccnc(C(F)(F)F)c2)cc1
Proliferation (NCI-H460 [3]): 68% | Proliferation (SF-268 [5]): 81% | Proliferation (MCF7 [6]): 80%

O=C(Nc1ccncc1)c1ccccc1Nc1ccnc(C(F)(F)F)c1
Proliferation (NCI-H460 [3]): 99% | Proliferation (SF-268 [5]): 96% | Proliferation (MCF7 [6]): 79%
